Laboratory results published in patent US9150617B2, “Immunoregulatory peptides and methods of use” (13 Therapeutics, Inc., priority 2009, dated 2015).

Assays:
[1] = test system: TNF-α secretion from RAW264.7 cells; assay: Inhibition of TNF-α secretion from RAW264.7 cells stimulated with CpG-ODN (ELISA); format: cell-based, murine; conditions: CpG stimulation, 1.25 ug/ml CpG-ODN
Procedure: (§1) RAW264.7 (murine monocyte/macrophage cells (American Type Culture Collection) were cultured at 37° C. in a 5% CO2 humidified incubator and grown in DMEM (Invitrogen Life Technologies) supplemented with 10% (v/v) heat-inactivated FCS, 1.5 mM L-glutamine, 100 U/ml penicillin, and 100 μg/ml streptomycin.
(§2) RAW264.7 cells were plated at 1.5×10^5 cells/well −3×10^5 cells/well in 48-well plates. After 24 hours, the cells were incubated with peptides at various concentrations at room temperature in triplicate either before, simultaneous with, or after activation with various PAMPs for 18 hours. Cell-free supernatants were analyzed for cytokines by ELISA, in quadruplicate. RAW264.7 cells were stimulated with either CpG-ODN (1 μg/ml or 1.25 μg/ml), LPS (about 1 ng/ml), Poly (I:C) (about 10 μg/ml), flagellin (about 5 ng/ml), or zymosan (about 10 μg/ml). Dose response curves were done with each PAMP to determine optimal stimulation concentration. For CpG-ODN stimulation, cells were incubated for 4 hours at 37° C., supernatants collected, and TNF-α measured by ELISA. Any cytokine involved in inflammatory disease mediated toll receptor signaling can be measured using similar assays.
The effect of several peptides on TNF-α secretion from RAW264.7 cells in response to stimulation by CpG-ODN was studied. Each peptide was initially tested at 3 concentrations, 37 μM, 22.2 μM, and 11.1 μM. […] The peptides were then tested at 11.1 μM, 7.4 μM, and 3.7 μM (Table 3). […] Cell viability was examined for each peptide at the concentrations tested for TNF-α inhibition.
(§3) Inhibition of TNF-α secretion by various T-peptides was examined. RAW264.7 cells were plated at 3×10^5 cells/well in 48-well plates. After 24 h the cells were incubated with peptide at various concentrations at room temperature in triplicate for 15 minutes and then stimulated with 1.25 ug/ml CpG-ODN or 1 ng/ml LPS. Cells were then incubated for 4 hours at 37° C., supernatants collected, and TNF-α measured by ELISA. Percent inhibition was calculated by comparing TNF-α secretion from cells incubated with peptide to control cells with no peptide treatment. The inhibition by peptides T3, T11, T21, T36, T37, T51 and T52 were compared to inhibition by an analogue of P13 having a sequence of nine arginine residues (SEQ ID NO: 379) at the C-terminus (P13-R^9; SEQ ID NO: 378). (Table 4).

[2] = test system: TNF-α secretion from RAW264.7 cells; assay: Inhibition of TNF-α secretion from RAW264.7 cells stimulated with LPS (ELISA); format: cell-based, murine; conditions: LPS Stimulation, 1 ng/ml LPS
Procedure: as §1, §2, §3

[3] = test system: LPS-induced septic shock in mice; assay: Mouse model of LPS-induced septic shock; format: in vivo
Procedure: BALB/c mice are injected i.p. with PBS, LPS at about 100 μg/mouse/250 μl, or about 100 μg LPS plus various doses of peptides. Serum is collected at about 2 and about 6 hours after treatment and evaluated for the pro-inflammatory cytokines MIP-2 and TNF-α by ELISA, and for soluble ICAM-1.

[4] = test system: middle ear inflammation in BALB/c mice; assay: Middle ear inflammation, heat-inactivated S. pneumoniae plus peptide injected into the middle ear; format: in vivo, mouse; conditions: heat-inactivated S. pneumoniae into middle ears of BALB/c mice
Procedure: Induction of otitis media: BALB/c (Bagg albino) mice, about 8-12 weeks of age, are anesthetized with a subcutaneous injection of xylazine & ketamine (about 0.1 mg/30 gm body weight) and their ears examined under the operating microscope to assure they are free of infection or perforation. One group of animals is injected with PBS (Phospho-buffered saline) in one ear and with about 10 μM of a peptide of Table 1 in the opposite ear, to determine the effect of peptide without added bacteria. A second group of animals receive about 5.0 μl of PBS plus heat-inactivated S. pneumoniae (about 10^9 CFU/ml) in one ear and about 5.0 μl of peptide (about 10 μM) plus heat-inactivated S. pneumoniae (about 10^9 CFU/ml) in the opposite ear. […] Inflammation is quantified by measuring 1) area of fluid present in the middle ear; 2) number of cells in middle ear fluid; and 3) thickness of the tympanic membrane (TM) taken at a point away from the injection site. Data are obtained from mice (n=18) injected with PBS alone for each of the histological parameters measured, to serve as a control group.
At the end of the experimental treatment, mice are killed and tissues collected for histology. […] This enables all histologic embedding, sectioning, staining, and analysis to be done on the two sides simultaneously to reduce any impact of processing variables on the subsequent quantitative analyses. […]

[5] = test system: toll-like receptor-dependent signaling; assay: Cytokine secretion in response to TLR activation; format: cell-based
Procedure: as §2

Sequence: DIVKLTVYDCIRRRRRRRRR [P13-R^9]
- Percent Inhibition of TNF-α secretion ([1]; 7.1 μM peptide): 32%
- Percent Inhibition of TNF-α secretion ([1]; 11.1 μM peptide): 65%
- Percent Inhibition of TNF-α secretion ([1]; 22 μM peptide): 86%
- Percent Inhibition of TNF-α secretion ([2]; 7.4 uM peptide): 0%
- Percent Inhibition of TNF-α secretion ([2]; 11.1 uM peptide): 13%
- Percent Inhibition of TNF-α secretion ([2]; 22.2 uM peptide): 69%
- pro-inflammatory mediators [3]: reduce pro-inflammatory mediators
- bacterial-induced inflammatory response in the middle ear [4]: dramatically reduced
- cytokine secretion in response to TLR activation [5]: effectively inhibits
